In patent publication US20040229895A1, “Tetracyclic benzamide derivatives and methods of use thereof” (Inotek Pharmaceuticals Corporation, priority 2003, published 2004):

Target: T1, PARP (Mus musculus, UniProt P11103)
T1 construct: endogenous in cells; host or cells: RAW mouse macrophages
Assay: PARP activation in peroxynitrite-stimulated cultured macrophages, whole-cell based assay (3H-NAD+ incorporation)
Conditions: RAW mouse macrophages, peroxynitrite-induced PARP activation, 10 min pretreatment; for inhibition at 0.3 µM: 300 nM; for inhibition at 0.1 µM: 100 nM
Procedure: RAW mouse macrophages were cultured in DMEM medium with high glucose and supplemented with 10% fetal bovine serum. Cells were used at 80% confluence in 12-well plates. Cells were pretreated with various concentrations (100 nM-1 μM) of a Tetracyclic Benzamide Derivative for 10 min. Peroxynitrite, a prototypical oxidant which induces DNA single strand breakage, was used to induce PARP activation. Peroxynitrite was diluted in phosphate buffered saline (PBS) (pH 11.0) and added to the cells in a bolus of 50 μl. Cells were then incubated for 20 min. […] After the 20 min incubation, the cells were spun, the medium was aspirated and the cells were resuspended in 0.5 mL assay buffer (56 mM HEPES pH 7.5, 28 mM KCl, 28 mM NaCl, 2 mM MgCl2, 0.01% w/v digitonin and 0.125 μM NAD^+ and 0.5 μCi/ml ^3H-NAD^+). Following an incubation in assay buffer, (10 min at 37° C.), PARP activity was measured as follows: 200 μl ice cold 50% w/v TCA was added and the samples were incubated for 4 h at 4° C. Samples were then spun (10 min @ 10,000 g) and pellets washed twice with ice cold 5% w/v TCA and solubilized overnight in 250 μl 2% w/v SDS/0.1 N NaOH at 37° C. The contents of the tubes were added to 6.5 mL ScintiSafe Plus scintillation liquid (Fisher Scientific) and radioactivity was determined using a liquid scintillation counter (Wallac, Gaithersburg, Md.).

T1 sequence (P11103 whole entry): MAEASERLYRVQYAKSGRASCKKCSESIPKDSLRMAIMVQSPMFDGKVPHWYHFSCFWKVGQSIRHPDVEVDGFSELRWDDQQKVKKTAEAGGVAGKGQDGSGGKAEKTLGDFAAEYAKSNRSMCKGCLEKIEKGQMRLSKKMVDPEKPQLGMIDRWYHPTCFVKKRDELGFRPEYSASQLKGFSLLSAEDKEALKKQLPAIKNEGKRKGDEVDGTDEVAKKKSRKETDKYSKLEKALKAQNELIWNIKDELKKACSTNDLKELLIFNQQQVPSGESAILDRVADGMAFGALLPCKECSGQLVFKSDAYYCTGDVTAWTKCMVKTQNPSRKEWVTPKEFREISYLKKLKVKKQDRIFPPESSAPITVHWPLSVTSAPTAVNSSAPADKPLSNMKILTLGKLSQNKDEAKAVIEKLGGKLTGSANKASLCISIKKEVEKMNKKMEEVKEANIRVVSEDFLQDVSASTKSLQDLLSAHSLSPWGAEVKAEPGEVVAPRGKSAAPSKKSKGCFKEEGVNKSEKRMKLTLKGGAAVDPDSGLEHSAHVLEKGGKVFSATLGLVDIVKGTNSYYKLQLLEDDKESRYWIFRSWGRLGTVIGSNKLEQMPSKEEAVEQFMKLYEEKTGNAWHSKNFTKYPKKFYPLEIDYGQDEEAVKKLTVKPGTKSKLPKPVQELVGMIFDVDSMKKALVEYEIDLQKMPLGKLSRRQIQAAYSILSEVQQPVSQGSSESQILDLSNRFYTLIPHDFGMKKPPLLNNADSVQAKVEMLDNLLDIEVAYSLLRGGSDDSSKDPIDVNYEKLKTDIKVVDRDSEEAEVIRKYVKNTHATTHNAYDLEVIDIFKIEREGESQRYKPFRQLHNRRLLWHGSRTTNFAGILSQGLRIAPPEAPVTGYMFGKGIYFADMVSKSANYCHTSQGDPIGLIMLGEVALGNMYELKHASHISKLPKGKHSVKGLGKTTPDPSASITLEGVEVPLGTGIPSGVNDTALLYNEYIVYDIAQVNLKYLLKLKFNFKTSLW

Row | inhibition at 0.3 µM [%] | inhibition at 1 µM [%] | inhibition at 0.1 µM [%] | SMILES
1 | 9 | 70 |  | O=c1[nH]c2c(c3ccccc13)-c1ccc(S(=O)(=O)NCCCN3CCOCC3)cc1C2 [Compound 11a, 5-Oxo-5,7-dihydro-6H-indeno[2,1-c]isoquinoline-9-sulfonic acid (3-morpholin-4-yl-propyl)-amide]
2 | 66 | 67 | 40 | CC(=O)Oc1nc2c3ccccc3oc2c2ccccc12 [Compound 16g, Acetic acid 11-oxa-6-aza-benzo[a]fluoren-5-yl ester]
3 | 54 | 61 | 36 | Cc1ccc2c(n1)oc1c3ccccc3c(=O)[nH]c21 [Compound 26a, 9-Methyl-6H-11-oxa-6,10-diaza-benzo[a]fluoren-5-one]
